According to the supplement of paper PMC10307832:

Columns and labels:
Test in all cases: relative viability (nuclei count vs DMSO), 5 days (fraction); higher = more cells survive
XMD14-99 + Crizotinib = compound: CN1CCN(CC1)C2=CC(=C(C=C2)NC3=NC(=C(S3)C(=O)C4=C(C=CC=C4Cl)Cl)N)OC [XMD14-99] + C[C@@H](Oc1cc(-c2cnn(C3CCNCC3)c2)cnc1N)c1c(Cl)ccc(F)c1Cl [Crizotinib] (partner 1 µM)
How it was run: (§1)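 Five library-drug doses in √10 steps were combined with a fixed anchor-drug dose, or a single drug was given alone, by pin tool to lung cancer cell lines in 1536-well plates the day after seeding. Nuclei were stained and counted after 5 days. Relative viability is the nuclei count in treated wells over that in vehicle wells, taken as the median of duplicate plates.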

AZD1208 + Bortezomib = compound: N[C@@H]1CCCN(c2c(/C=C3\SC(=O)NC3=O)cccc2-c2ccccc2)C1 [AZD1208] + CC(C)C[C@H](NC(=O)[C@H](Cc1ccccc1)NC(=O)c1cnccn1)B(O)O [Bortezomib] (partner 0.002 µM)
How it was run: as §1

XMD14-99 + Trametinib = compound: CN1CCN(CC1)C2=CC(=C(C=C2)NC3=NC(=C(S3)C(=O)C4=C(C=CC=C4Cl)Cl)N)OC [XMD14-99] + CC(=O)Nc1cccc(-n2c(=O)n(C3CC3)c(=O)c3c(Nc4ccc(I)cc4F)n(C)c(=O)c(C)c32)c1 [Trametinib] (partner 0.02 µM)
How it was run: as §1

AZD1208 + Pemetrexed = compound: N[C@@H]1CCCN(c2c(/C=C3\SC(=O)NC3=O)cccc2-c2ccccc2)C1 [AZD1208] + Nc1nc2[nH]cc(CCc3ccc(C(=O)N[C@@H](CCC(=O)O)C(=O)O)cc3)c2c(=O)[nH]1 [Pemetrexed] (partner 0.2 µM)
How it was run: as §1

Cell Line: UMC-11
- relative viability (XMD14-99 + Crizotinib; first compound 0.08 µM): 0.619
- relative viability (XMD14-99 + Crizotinib; first compound 0.8 µM): 0.582
- relative viability (XMD14-99 + Crizotinib; first compound 2.53 µM): 0.721
- relative viability (XMD14-99 + Crizotinib; first compound 8 µM): 0.577
- relative viability (AZD1208 + Bortezomib; first compound 0.08 µM): 0.742
- relative viability (AZD1208 + Bortezomib; first compound 0.253 µM): 0.755
- relative viability (AZD1208 + Bortezomib; first compound 0.8 µM): 0.644
- relative viability (AZD1208 + Bortezomib; first compound 2.53 µM): 0.62
- relative viability (AZD1208 + Bortezomib; first compound 8 µM): 0.374
- relative viability (XMD14-99 + Trametinib; first compound 0.08 µM): 0.744
- relative viability (XMD14-99 + Trametinib; first compound 0.8 µM): 0.637
- relative viability (XMD14-99 + Trametinib; first compound 2.53 µM): 0.747
- relative viability (XMD14-99 + Trametinib; first compound 8 µM): 0.645
- relative viability (AZD1208 + Pemetrexed; first compound 0.08 µM): 0.689
- relative viability (AZD1208 + Pemetrexed; first compound 0.253 µM): 0.718
- relative viability (AZD1208 + Pemetrexed; first compound 0.8 µM): 0.631
- relative viability (AZD1208 + Pemetrexed; first compound 2.53 µM): 0.594
- relative viability (AZD1208 + Pemetrexed; first compound 8 µM): 0.48
